Laboratory results reported in ChEMBL document CHEMBL1201862, “PubChem BioAssay data set” (2004).
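Five concentrations, 48 hours, 96-well plates. Here, GI50 denotes the concentration required for 50% inhibition of growth.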 Calls of active or inactive are those of the source. No stated cut-off is given here; in the data, active = GI50 up to about 1.1 µM and inactive = higher.

Legend:
Assay in all cases: inhibition of tumour cell growth, NCI panel, 48 h
UACC-257 = tested on: UACC-257
OVCAR-5 = tested on: OVCAR-5
MDA-MB-435 = tested on: MDA-MB-435
Hs-578T = tested on: Hs-578T
SK-MEL-5 = tested on: SK-MEL-5
NCI-H226 = tested on: NCI-H226
OVCAR-8 = tested on: OVCAR-8
T47D = tested on: T47D
TK-10 = tested on: TK-10
HL-60 = tested on: HL-60
SF-539 = tested on: SF-539
RXF 393 = tested on: RXF 393
MCF7 = tested on: MCF7
SNB-75 = tested on: SNB-75
SNB-19 = tested on: SNB-19
HCC 2998 = tested on: HCC 2998
SF-268 = tested on: SF-268
CAKI-1 = tested on: CAKI-1
SK-OV-3 = tested on: SK-OV-3

Measured: GI50

CCCCCCCCCC(O)CC(=O)c1c(O)cccc1O (centres undefined)
inactive: UACC-257 19.5 µM | OVCAR-5 18.7 µM | MDA-MB-435 25.9 µM | Hs-578T 18.6 µM | SK-MEL-5 19 µM | NCI-H226 17.4 µM | OVCAR-8 18.8 µM | T47D 25.2 µM | TK-10 21.8 µM | HL-60 22.2 µM | SF-539 20.3 µM | RXF 393 16.9 µM | MCF7 26.8 µM | SNB-75 18.7 µM | SNB-19 29.9 µM | HCC 2998 12.4 µM | SF-268 17.7 µM | CAKI-1 21.7 µM | SK-OV-3 20 µM

OC(c1ccc(C(F)(F)F)cc1)C(F)(F)c1nc2ccccc2o1 (centres undefined)
inactive: UACC-257 > 100 µM | MDA-MB-435 > 100 µM | Hs-578T > 100 µM | SK-MEL-5 > 100 µM | NCI-H226 > 100 µM | OVCAR-8 > 100 µM | T47D > 100 µM | TK-10 > 100 µM | HL-60 > 100 µM | SF-539 > 100 µM | RXF 393 > 100 µM | MCF7 > 100 µM | SNB-75 > 100 µM | SNB-19 > 100 µM | HCC 2998 > 100 µM | SF-268 > 100 µM | CAKI-1 > 100 µM | SK-OV-3 > 100 µM

O=C(OCc1ccccc1)N1CCNCCNCC1
inactive: UACC-257 > 100 µM | OVCAR-5 > 100 µM | MDA-MB-435 > 100 µM | Hs-578T > 100 µM | SK-MEL-5 > 100 µM | NCI-H226 > 100 µM | OVCAR-8 > 100 µM | T47D > 100 µM | TK-10 > 100 µM | HL-60 > 100 µM | SF-539 > 100 µM | RXF 393 > 100 µM | MCF7 > 100 µM | SNB-19 > 100 µM | HCC 2998 > 100 µM | SF-268 > 100 µM | CAKI-1 > 100 µM

O=C(O)c1ccccc1/C=C1\Cc2ccc3c(c2C1=O)CCCC3
inactive: UACC-257 25.1 µM | OVCAR-5 73.1 µM | MDA-MB-435 44.7 µM | Hs-578T 34.1 µM | SK-MEL-5 15.9 µM | NCI-H226 28.6 µM | OVCAR-8 68.7 µM | T47D 19.6 µM | TK-10 75.2 µM | HL-60 26.4 µM | SF-539 26.4 µM | RXF 393 30.5 µM | MCF7 48.3 µM | SNB-75 27 µM | SNB-19 39.4 µM | HCC 2998 31.3 µM | SF-268 64 µM | SK-OV-3 94.8 µM

CCOC1CC(=O)c2c(Br)sc(Br)c21 (centres undefined)
inactive: UACC-257 16.9 µM | OVCAR-5 23.7 µM | MDA-MB-435 17.5 µM | Hs-578T 37.8 µM | SK-MEL-5 30.8 µM | OVCAR-8 17.5 µM | T47D 19.9 µM | TK-10 20.7 µM | HL-60 20.4 µM | SF-539 26.4 µM | RXF 393 18.5 µM | MCF7 21.2 µM | SNB-75 19.1 µM | SNB-19 23.8 µM | HCC 2998 21.9 µM | SF-268 28.6 µM | CAKI-1 17.3 µM | SK-OV-3 16.5 µM

NC(=S)N/N=C\CC(O)(C(F)(F)F)C(F)(F)F
inactive: UACC-257 > 10 µM | MDA-MB-435 > 10 µM | Hs-578T > 10 µM | SK-MEL-5 > 10 µM | NCI-H226 > 10 µM | OVCAR-8 > 10 µM | T47D > 10 µM | TK-10 > 10 µM | HL-60 > 10 µM | SF-539 > 10 µM | RXF 393 > 10 µM | MCF7 > 10 µM | SNB-75 > 10 µM | SNB-19 > 10 µM | HCC 2998 > 10 µM | SF-268 > 10 µM | CAKI-1 > 10 µM | SK-OV-3 > 10 µM

CN(C)c1ccc(/C=C/C(=O)N[C@@H]2C(=O)N3[C@@H]2SC(C)(C)[C@@H]3C(=O)O)cc1
inactive: UACC-257 > 100 µM | OVCAR-5 > 100 µM | MDA-MB-435 > 100 µM | Hs-578T > 100 µM | SK-MEL-5 > 100 µM | NCI-H226 > 100 µM | OVCAR-8 > 100 µM | T47D > 100 µM | TK-10 > 100 µM | HL-60 > 100 µM | SF-539 > 100 µM | RXF 393 > 100 µM | MCF7 > 100 µM | SNB-75 > 100 µM | SNB-19 > 100 µM | HCC 2998 > 100 µM | SF-268 > 100 µM | CAKI-1 > 100 µM

Nc1ccnc2c1ncn2[C@H]1C[C@H](O)[C@@H](CO)O1
inactive: UACC-257 > 100 µM | OVCAR-5 > 100 µM | MDA-MB-435 > 100 µM | Hs-578T > 100 µM | SK-MEL-5 > 100 µM | NCI-H226 > 100 µM | OVCAR-8 > 100 µM | T47D > 100 µM | TK-10 > 100 µM | HL-60 > 100 µM | SF-539 > 100 µM | RXF 393 > 100 µM | MCF7 > 100 µM | SNB-75 > 100 µM | SNB-19 > 100 µM | HCC 2998 > 100 µM | SF-268 > 100 µM | CAKI-1 > 100 µM
